In brackets after ≈: the same amount, converted by molar mass. Several values for one entry are separate records, joined by “and”; a condition that tells them apart may be missing. Equal entries are not always repeated. Where two headings read alike, the source gives them in different places.
How the values were obtained:
[1] = Cytotoxicity assay using MTT; format: cell-based; details: dog, MDCK cells infected with influenza virus (K09), MDCK cell infected with K09; compound 24 hours; read-out: MTT assay (Experimental Example 3) CC50
Procedure: (§1) In this experiment, a cell was infected with a virus, and then the virus was directly treated with a compound so as to determine if the virus-infected cell has toxicity. For this, a cell (MDCK) was infected with an influenza virus (K09) for 1 hour, and treated with the compound with different concentrations for 24 hours. Then, the cell was treated with a MTT reagent for 1 hour. After 1 hour, a formazan crystal produced by the MTT reagent was dissolved in DMSO, and the absorbance was measured by an ELISA reader so as to determine CC50.
(§2) measured by MTT assay. A maximum concentration of the compound, at which the number of cells is reduced to half or more compared to that of a control group

[2] = test system: H1N1 influenza virus (solomon); experiment: microbe, parasite or virus in culture; format: cell-based
[3] = test system: novel influenza virus (B/Field); experiment: microbe, parasite or virus in culture; format: cell-based
[4] = test system: influenza virus (K09) expressing GFP; format: cell-based; set-up: key: ◯ = effective; X = ineffective
[5] = test system: novel influenza virus (K09); experiment: microbe, parasite or virus in culture; format: cell-based; details: for EC50: MDCK, 72 h, read-out: Plaque reduction (Experimental Example 2) EC50
[6] = Acute toxicity test through oral administration in a rat; format: in vivo; details: male SD-Rat, single oral administration, 14 days observation; for LD50 at 14 days: Sprague-Dawley (SD), in vivo
Procedure: The acute toxicity of the inventive compound was determined through oral administration in a rat. Since the compound is expected to be orally administered in a clinical situation, an oral administration route was selected. A male rat aged 6 weeks (SD-Rat, 220±30 g) was subjected to quarantine, and acclimated for 1 week under a condition of lighting of 12 hours (08:00˜20:00), and luminance of 150-300 Lux at 22±3° C. at a relative humidity of 50±20%, while being freely fed with feed and water. Each of a control group and an experimental group include 8 rats. The control group was orally administered with 0.5% HPMC, and the experimental group was orally administered with a material (different concentrations) suspended in 0.5% HPMC, by using a sonde in an amount in proportion to the measured weight of each individual.
The concentration of the drug administered to the experimental group was set as 2000 mg/kg (the highest concentration for a single dose administration in a non-clinical test), and 1000 mg/kg, and 500 mg/kg (with a common ratio). For 14 days from drug administration, clinical symptoms were observed while the weight change was measured. Test animals that died during the test were subjected to autopsy, and abnormalities of main organs (heart, liver, lung, spleen, kidney, and large intestine) were observed and recorded. On the last day of the test (on the 14th day from the administration), all individuals were subjected to autopsy, and the changes of the organs caused by a test material were observed and compared to those in the control group. In the control group, no rats had died, and abnormalities were not observed through autopsy.
Each group was orally administered in a concentration of 500 mg/kg, 1000 mg/kg, and 2000 mg/kg. For 14 days from the administration, according to the test method, clinical symptoms were observed. […] Also, in the groups administered in various amounts, no individuals died. […] Further, no abnormal responses were observed, and from the autopsy results, no peculiarities were observed.

[7] = test system: cell (MDCK) infected with an influenza virus (K09); experiment: Cytotoxicity assay using MTT; format: cell-based; details: compound 24 hours
Procedure: as §1, §2

[8] = Influenza A virus, Solomon (H1N1), read-out: EC50

COc1cccc(N2CCN(C(=O)c3c(-c4ccccc4C(F)(F)F)noc3C)CC2)c1 [Example 3, (4-(3-methoxyphenyl)piperazine-1-yl)(5-methyl-3-(2-(trifluoromethyl)phenyl)isoxazol-4-yl)methanone]
CC50 at 24 h [1]: 308 to 628 µg/mL (≈ 691 to 1410 µM)
EC50 [2, 8]: 0.064 to 0.094 µg/mL (≈ 0.144 to 0.211 µM)
SI value ([2]; Solomon (H1N1), CC50/EC50): 3276.59 to 9812.50
EC50 ([3]; unidentified influenza virus): > 50 µg/mL
GFP reduction (Experimental Example 1) effect [4]: ◯
SI value K09 ([5]; K09, CC50/EC50): 473.84 to 1903.03
EC50 [5]: 0.33 to 0.65 µg/mL (≈ 0.741 to 1.46 µM)
LD50 at 14 days [6]: > 2000 mg/kg

COc1ccccc1N1CCN(C(=O)c2c(-c3ccccc3C(F)(F)F)noc2C)CC1 [Example 4]
MTT assay (Experimental Example 3) CC50 [7]: 78.12 to 156.25 µg/mL and 78.125 to 156.25 µg/mL
SI value [2]: 6.25 to 12.5
EC50 ([2]; Solomon (H1N1)): 12.5 µg/mL (≈ 28.1 µM)
SI value [3]: 1.563>
EC50 ([3]; B/Field): 50< μg/ml
GFP reduction (Experimental Example 1) effect [4]: ◯
Plaque reduction (Experimental Example 2) EC50 [5]: 12.5 to 25 µg/mL
SI value K09 [5]: 3.125 to 12.5
LD50 [6]: 2,000< mg/kg

COc1cccc(N2CCN(C(=O)c3c(-c4ccccc4Cl)noc3C)CC2)c1 [Example 9, (3-(2-chlorophenyl)-5-methylisoxazol-4-yl)(4-(3-methoxyphenyl)piperazine-1-yl)methanone]
CC50 at 24 h [1]: 312 to 625 µg/mL (≈ 759 to 1520 µM)
EC50 [2, 8]: 0.048 to 0.097 µg/mL (≈ 0.117 to 0.236 µM)
SI value ([2]; Solomon (H1N1), CC50/EC50): 3221.649 to 13020.833
EC50 ([3]; unidentified influenza virus): > 50 µg/mL
GFP reduction (Experimental Example 1) effect [4]: ◯
SI value K09 ([5]; K09, CC50/EC50): 801.282 to 3205.128
EC50 [5]: 0.195 to 0.39 µg/mL (≈ 0.473 to 0.947 µM)
LD50 at 14 days [6]: > 2000 mg/kg

Cc1onc(-c2cccc(F)c2)c1C(=O)N1CCN(c2ccc(Cl)c(Cl)c2)CC1 [Example 11, (4-(3,4-dichlorophenyl)piperazine-1-yl)(3-(3-fluorophenyl)-5-methylisoxazol-4-yl)methanone]
CC50 at 24 h [1]: 287 to 625 µg/mL (≈ 661 to 1440 µM)
EC50 [2, 8]: 0.087 to 0.199 µg/mL (≈ 0.2 to 0.458 µM)
SI value ([2]; Solomon (H1N1), CC50/EC50): 1442.211 to 7183.908
SI value ([3]; B/Field, CC50/EC50): 67.529 to 147.058
EC50 ([3]; unidentified influenza virus): 4.25 µg/mL (≈ 9.79 µM)
GFP reduction (Experimental Example 1) effect [4]: ◯
EC50 [5]: < 0.16 µg/mL
LD50 at 14 days [6]: > 2000 mg/kg

COc1cccc(N2CCN(C(=O)c3c(-c4cccc(F)c4)noc3C)CC2)c1 [Example 12, (3-(3-fluorophenyl)-5-methylisoxazol-4-yl)(4-(3-methoxyphenyl)piperazine-1-yl)methanone]
CC50 at 24 h [1]: 78.1 to 156 µg/mL (≈ 198 to 395 µM)
EC50 [2, 8]: 0.781 µg/mL (≈ 1.98 µM)
SI value ([2]; Solomon (H1N1), CC50/EC50): 100.032 to 200.064
EC50 ([3]; unidentified influenza virus): > 50 µg/mL
GFP reduction (Experimental Example 1) effect [4]: ◯
SI value K09 ([5]; K09, CC50/EC50): 25 to 50
EC50 [5]: 3.12 µg/mL (≈ 7.9 µM)
LD50 at 14 days [6]: > 2000 mg/kg

Cc1onc(-c2cccc(F)c2)c1C(=O)N1CCN(c2ccccc2O)CC1 [Example 16, (3-(3-fluorophenyl)-5-methylisoxazol-4-yl)(4-(2-hydroxyphenyl)piperazine-1-yl)methanone]
CC50 at 24 h [1]: 78.1 µg/mL (≈ 205 µM)
MTT assay (Experimental Example 3) CC50 [7]: 78.125 µg/mL
EC50 [2, 8]: 0.097 to 0.195 µg/mL (≈ 0.254 to 0.511 µM)
SI value ([2]; Solomon (H1N1), CC50/EC50): 400.641 to 805.412
SI value ([3]; B/Field, CC50/EC50): 3.125
EC50 ([3]; unidentified influenza virus): 25 µg/mL (≈ 65.5 µM)
GFP reduction (Experimental Example 1) effect [4]: ◯
SI value K09 ([5]; K09, CC50/EC50): 200.321
EC50 [5]: 0.39 µg/mL (≈ 1.02 µM)
LD50 at 14 days [6]: > 2000 mg/kg

Cc1onc(-c2ccccc2OC(F)(F)F)c1C(=O)N1CCN(c2ccc(Cl)c(Cl)c2)CC1 [Example 35, (4-(3,4-dichlorophenyl)piperazine-1-yl)(5-methyl-3-(2-(trifluoromethoxy)phenyl)isoxazol-4-yl)methanone]
CC50 at 24 h [1]: 312 to 625 µg/mL (≈ 625 to 1250 µM)
EC50 [2, 8]: 0.097 to 0.195 µg/mL (≈ 0.194 to 0.39 µM)
SI value ([2]; Solomon (H1N1), CC50/EC50): 1602.564 to 6443.298
SI value ([3]; B/Field, CC50/EC50): 50 to 100
EC50 ([3]; unidentified influenza virus): 6.25 µg/mL (≈ 12.5 µM)
GFP reduction (Experimental Example 1) effect [4]: ◯
EC50 [5]: 0.395 to 0.781 µg/mL (≈ 0.79 to 1.56 µM)
LD50 at 14 days [6]: > 2000 mg/kg

COc1cccc(N2CCN(C(=O)c3c(-c4ccccc4OC(F)(F)F)noc3C)CC2)c1 [Example 36]
MTT assay (Experimental Example 3) CC50 [7]: 500< μg/ml
GFP reduction (Experimental Example 1) effect [4]: ◯
SI value K09 ([5]; K09, CC50/EC50): 320<
Plaque reduction (Experimental Example 2) EC50 ([5]; K09, MDCK cell, 72 hours): 1.56 µg/mL

COc1cccc(N2CCN(C(=O)c3c(-c4ccccc4Cl)noc3N)CC2)c1 [Example 60, (5-amino-3-(2-chlorophenyl)isoxazol-4-yl)(4-(3-methoxyphenyl)piperazine-1-yl)methanone]
CC50 at 24 h [1]: > 500 µg/mL
EC50 [2, 8]: 0.053 to 0.094 µg/mL (≈ 0.128 to 0.228 µM)
SI value ([3]; B/Field, CC50/EC50): 80<
EC50 ([3]; unidentified influenza virus): 6.25 µg/mL (≈ 15.1 µM)
GFP reduction (Experimental Example 1) effect [4]: ◯
EC50 [5]: 0.195 µg/mL (≈ 0.473 µM)
LD50 at 14 days [6]: > 2000 mg/kg

Nc1onc(-c2ccccc2OC(F)(F)F)c1C(=O)N1CCN(c2ccc(Cl)c(Cl)c2)CC1 [Example 83]
MTT assay (Experimental Example 3) CC50 [7]: 150.3 to 189.64 µg/mL
GFP reduction (Experimental Example 1) effect [4]: ◯
SI value K09 ([5]; K09, CC50/EC50): 100.2 to 291.75
Plaque reduction (Experimental Example 2) EC50 ([5]; K09, MDCK cell, 72 hours): 0.65 to 1.5 µg/mL
LD50 [6]: 2,000< mg/kg

COc1cccc(N2CCN(C(=O)c3c(-c4ccccc4C(F)(F)F)noc3N)CC2)c1 [Example 92]
MTT assay (Experimental Example 3) CC50 [7]: 14.62 to 33.52 µg/mL
GFP reduction (Experimental Example 1) effect [4]: ◯
SI value K09 ([5]; K09, CC50/EC50): 0.32 to 1.59
Plaque reduction (Experimental Example 2) EC50 ([5]; K09, MDCK cell, 72 hours): 21 to 45 µg/mL

Nc1onc(-c2ccc(OC(F)(F)F)cc2)c1C(=O)N1CCN(c2ccc(Cl)c(Cl)c2)CC1 [Example 99]
MTT assay (Experimental Example 3) CC50 [7]: 14.62 to 33.52 µg/mL
GFP reduction (Experimental Example 1) effect [4]: ◯
SI value K09 ([5]; K09, CC50/EC50): 0.32 to 1.59
Plaque reduction (Experimental Example 2) EC50 ([5]; K09, MDCK cell, 72 hours): 21 to 45 µg/mL

CCOC(=O)C1CCN(C(=O)c2c(-c3ccccc3OC(F)(F)F)noc2N)CC1 [Example 124]
MTT assay (Experimental Example 3) CC50 [7]: 312.5 µg/mL
SI value [2]: 50
EC50 ([2]; Solomon (H1N1)): 6.25 µg/mL (≈ 14.6 µM)
SI value [3]: 6.25>
EC50 ([3]; B/Field): 50< μg/ml
GFP reduction (Experimental Example 1) effect [4]: ◯
Plaque reduction (Experimental Example 2) EC50 [5]: 3.125 to 6.25 µg/mL
SI value K09 [5]: 50 to 100
LD50 [6]: 2,000< mg/kg

CCOC(=O)C1=C[C@@H](OC(CC)CC)[C@H](NC(C)=O)[C@@H](N)C1 [Oseltamivir, reference compound]
CC50 at 24 h [1]: 625 to 1250 µg/mL (≈ 2000 to 4000 µM)
EC50 [2, 8]: 3.12 to 6.25 µg/mL (≈ 10 to 20 µM)
SI value ([2]; Solomon (H1N1), CC50/EC50): 100 to 400
SI value ([3]; B/Field, CC50/EC50): 200 to 100
EC50 ([3]; unidentified influenza virus): 6.25 µg/mL (≈ 20 µM)
GFP reduction (Experimental Example 1) effect [4]: X
EC50 [5]: 0.391 µg/mL (≈ 1.25 µM)
LD50 at 14 days [6]: > 2000 mg/kg

From patent publication US9132126B2, “Phenyl-isoxazole derivatives and preparation process thereof” (priority 2011, dated 2015)
